Reference: patent US9475815B2, “Substituted benzothienyl-pyrrolotriazines and uses thereof” (Bayer Intellectual Property GmbH, priority 2012, dated 2016)
Counter-ions that a name gives are not always drawn.

Legend:
human mTOR = human mTOR (Homo sapiens (Human), UniProt P42345); assay: mTOR kinase assay (TR-FRET, for comparative purposes); type: biochemical; conditions: for inhibition at 1 µM: read-out: mTOR % inhibition @ 1 μM, 1 μM test compound, 40 μM ATP, mean values
Description: mTOR inhibitory activity of the compounds of the present invention was quantified employing the TR-FRET based mTOR assay as described in the following paragraphs:
Test compounds were dissolved in DMSO to generate 10 mM stock solutions. These solutions were first 10-fold diluted by 100% DMSO to get 1 mM solutions in 100% DMSO, then 100-fold diluted by 50% DMSO to get 10 μM solutions in 50% DMSO.
(final concentration in the 10 μl assay volume=1 nM) in FRET buffer.
For this, the fluorescence emissions at 495 nm and 520 nm after excitation at 340 nm was measured in an Envision 2104 multilabel reader (Perkin-Elmer).

human FGFR-1 = human FGFR-1 (Homo sapiens, UniProt P11362); assay: FGFR-1 high ATP kinase assay (TR-FRET)
human FGFR-3 = human FGFR-3 (Homo sapiens (Human), UniProt P22607); assay: FGFR-3 kinase assay (TR-FRET); type: biochemical; conditions: 10 μM ATP, 15 min pre-incubation with enzyme
Sequence of human FGFR-3 (P22607 397-806): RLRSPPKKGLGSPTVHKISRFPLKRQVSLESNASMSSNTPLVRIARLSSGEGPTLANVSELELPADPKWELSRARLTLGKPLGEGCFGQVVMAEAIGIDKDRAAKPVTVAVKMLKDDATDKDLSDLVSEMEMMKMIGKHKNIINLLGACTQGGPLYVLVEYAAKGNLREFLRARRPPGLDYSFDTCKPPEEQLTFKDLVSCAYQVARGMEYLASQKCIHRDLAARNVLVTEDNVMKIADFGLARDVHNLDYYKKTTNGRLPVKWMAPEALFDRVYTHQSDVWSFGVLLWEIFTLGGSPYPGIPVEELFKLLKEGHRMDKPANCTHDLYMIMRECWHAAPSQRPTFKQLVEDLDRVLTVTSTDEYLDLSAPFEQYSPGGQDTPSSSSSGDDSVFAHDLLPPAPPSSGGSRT

Sequence of human mTOR (P42345 1360-2549): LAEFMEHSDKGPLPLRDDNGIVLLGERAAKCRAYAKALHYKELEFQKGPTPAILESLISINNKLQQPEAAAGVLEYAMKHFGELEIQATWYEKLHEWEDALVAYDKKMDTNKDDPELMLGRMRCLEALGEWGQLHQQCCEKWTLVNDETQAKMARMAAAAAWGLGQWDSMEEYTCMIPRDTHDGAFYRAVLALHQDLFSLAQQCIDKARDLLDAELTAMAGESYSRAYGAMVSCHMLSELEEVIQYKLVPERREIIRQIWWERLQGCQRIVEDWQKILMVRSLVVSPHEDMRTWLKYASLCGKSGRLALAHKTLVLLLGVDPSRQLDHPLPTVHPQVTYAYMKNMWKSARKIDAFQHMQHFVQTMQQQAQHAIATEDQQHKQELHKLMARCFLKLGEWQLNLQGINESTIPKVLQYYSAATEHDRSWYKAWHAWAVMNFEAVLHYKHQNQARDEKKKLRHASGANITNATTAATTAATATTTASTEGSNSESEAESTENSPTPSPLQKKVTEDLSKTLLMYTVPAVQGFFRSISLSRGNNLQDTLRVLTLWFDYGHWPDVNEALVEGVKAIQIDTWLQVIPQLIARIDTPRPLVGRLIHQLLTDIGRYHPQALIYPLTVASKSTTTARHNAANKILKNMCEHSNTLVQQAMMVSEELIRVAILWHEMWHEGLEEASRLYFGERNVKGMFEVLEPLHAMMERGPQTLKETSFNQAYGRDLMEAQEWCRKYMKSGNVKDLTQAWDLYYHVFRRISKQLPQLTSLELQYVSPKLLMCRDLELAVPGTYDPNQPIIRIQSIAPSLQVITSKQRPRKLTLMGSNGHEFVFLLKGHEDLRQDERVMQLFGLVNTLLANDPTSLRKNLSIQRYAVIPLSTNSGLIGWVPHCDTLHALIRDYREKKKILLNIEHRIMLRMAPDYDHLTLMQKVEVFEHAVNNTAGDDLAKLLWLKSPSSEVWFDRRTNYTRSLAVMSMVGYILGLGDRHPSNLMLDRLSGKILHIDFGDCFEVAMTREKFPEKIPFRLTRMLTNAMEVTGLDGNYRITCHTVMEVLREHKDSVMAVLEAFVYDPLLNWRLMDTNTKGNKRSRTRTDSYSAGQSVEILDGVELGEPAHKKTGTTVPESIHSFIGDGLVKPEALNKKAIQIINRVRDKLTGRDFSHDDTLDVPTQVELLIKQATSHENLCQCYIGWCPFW
Sequence of human FGFR-1 (P11362 22-822 limits assumed): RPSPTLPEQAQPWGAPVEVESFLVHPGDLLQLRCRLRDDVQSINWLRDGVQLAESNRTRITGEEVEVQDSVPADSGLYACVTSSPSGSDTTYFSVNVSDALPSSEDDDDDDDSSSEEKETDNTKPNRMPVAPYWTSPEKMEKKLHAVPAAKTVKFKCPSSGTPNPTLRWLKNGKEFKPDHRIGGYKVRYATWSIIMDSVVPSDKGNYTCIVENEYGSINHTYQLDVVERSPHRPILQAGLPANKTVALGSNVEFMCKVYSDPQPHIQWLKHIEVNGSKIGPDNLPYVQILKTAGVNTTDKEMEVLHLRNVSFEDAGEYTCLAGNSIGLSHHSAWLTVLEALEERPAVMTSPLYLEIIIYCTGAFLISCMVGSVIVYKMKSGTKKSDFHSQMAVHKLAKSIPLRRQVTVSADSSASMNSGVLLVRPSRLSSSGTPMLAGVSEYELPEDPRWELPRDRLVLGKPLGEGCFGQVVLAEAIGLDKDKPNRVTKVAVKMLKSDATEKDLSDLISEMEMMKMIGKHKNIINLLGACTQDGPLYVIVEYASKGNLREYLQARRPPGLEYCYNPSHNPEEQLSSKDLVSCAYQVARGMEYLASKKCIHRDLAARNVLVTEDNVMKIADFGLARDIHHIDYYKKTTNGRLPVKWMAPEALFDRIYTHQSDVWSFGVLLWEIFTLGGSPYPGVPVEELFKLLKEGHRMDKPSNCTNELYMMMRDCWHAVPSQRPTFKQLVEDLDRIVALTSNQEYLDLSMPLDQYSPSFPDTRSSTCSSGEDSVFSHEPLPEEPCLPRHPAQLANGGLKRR

Row | SMILES | inhibition at 1 µM (human mTOR) [%] | IC50 (human FGFR-1) [µM] | IC50 (human FGFR-3) [µM] | mTOR % inhibition @ 1 μM (human mTOR; 1 μM test compound, 40 μM ATP, mean values)
1 | COc1cc(C)cc2cc(-c3cc(C(=O)N4CCC(O)CC4)n4ncnc(N)c34)sc12 [Example 101] | 24.9 | 0.0298 | 0.0291 | 
2 | COc1cc(Cl)cc2cc(-c3cc(CN4CCNCC4)n4ncnc(N)c34)sc12 [Example 4, 5-(5-Chloro-7-methoxy-1-benzothiophen-2-yl)-7-(piperazin-1-ylmethyl)pyrrolo[2,1-f][1,2,4]-triazin-4-amine trihydrochloride] | 26.2 | 0.0347 | 0.079 | 
3 | COc1cc(C)cc2cc(-c3cc(CN4CCNC(=O)C4(C)C)n4ncnc(N)c34)sc12 [Example 11, 4-{[4-Amino-5-(7-methoxy-5-methyl-1-benzothiophen-2-yl)pyrrolo[2,1-f][1,2,4]triazin-7-yl]-methyl}-3,3-dimethylpiperazin-2-one] | 27.8 | 0.095 | 0.146 | 
4 | COc1cc(C)cc2cc(-c3cc(CN(C)CCC(N)=O)n4ncnc(N)c34)sc12 [Example 67] | 48 | 0.0531 | 0.0284 | 
5 | COc1cc(C)cc2cc(-c3cc(CN4CC(O)C(NCCO)C4)n4ncnc(N)c34)sc12 (stereo not drawn) [Example 21] | 37.6 | 0.0132 | 0.008 | 
6 | CCN(Cc1cc(-c2cc3cc(C)cc(OC)c3s2)c2c(N)ncnn12)C(C)CO (stereo not drawn) [Example 77] | 20.2 | 0.0841 | 0.0823 | 
7 | COc1cc(C)cc2cc(-c3cc(CNCC(C)(C)N4CCOCC4)n4ncnc(N)c34)sc12 [Example 75] | 18.6 | 0.0743 | 0.115 | 
8 | COc1cc(C)cc2cc(-c3cc(CNCCN4CCC(O)CC4)n4ncnc(N)c34)sc12 [Example 58] | 12.6 | 0.0362 | 0.0467 | 
9 | COc1cc(C)cc2cc(-c3cc(CN[C@@H](CC(N)=O)C(=O)O)n4ncnc(N)c34)sc12 [Example 92] | 19.9 | 0.0462 | 0.0117 | 
10 | COc1cc(C)cc2cc(-c3cc(C(=O)N4CC[C@](C)(N)C4)n4ncnc(N)c34)sc12 [Example 97, [4-Amino-5-(7-methoxy-5-methyl-1-benzothiophen-2-yl)pyrrolo[2,1-f][1,2,4]triazin-7-yl][(3S)-3-amino-3-methylpyrrolidin-1-yl]methanone dihydrochloride] | 16.7 | 0.0047 | 0.0099 | 
11 | COc1cc(C)cc2cc(-c3cc(CNC4CCS(=O)(=O)C4)n4ncnc(N)c34)sc12 (stereo not drawn) [Example 78] | 35.6 | 0.0866 | 0.0958 | 
12 | COc1cc(C)cc2cc(-c3cc(Cn4ccnc4C#N)n4ncnc(N)c34)sc12 [Example 122] | 35.7 | 0.0718 | 0.0656 | 
13 | COc1cc(C)cc2cc(-c3cc(CN4CCN(C(N)=O)CC4)n4ncnc(N)c34)sc12 [Example 68] | 43.1 | 0.055 | 0.0293 | 
14 | COc1cc(C)cc2cc(-c3cc(C(=O)N4CCNC(C)(C)C4)n4ncnc(N)c34)sc12 [Example 103] | 9.2 | 0.0517 | 0.114 | 
15 | COc1cc(C)cc2cc(-c3cc(CN4CC5CNCC5C4)n4ncnc(N)c34)sc12 (stereo not drawn) [Example 23] | 28.1 | 0.0193 | 0.0694 | 
16 | COc1cc(C)cc2cc(-c3cc(COCCN4CCOC4=O)n4ncnc(N)c34)sc12 [Example 116] | 28 | 0.0903 | 0.0715 | 
17 | COc1cc(C)cc2cc(-c3cc(CN4CCN(CC(N)=O)CC4)n4ncnc(N)c34)sc12 [Example 64] | 28.2 | 0.0489 | 0.0564 | 
18 | COc1cc(C)cc2cc(-c3cc(CN(C)C4CCS(=O)(=O)C4)n4ncnc(N)c34)sc12 (stereo not drawn) [Example 74] | 46.9 | 0.0683 | 0.0871 | 
19 | COc1cc(C)cc2cc(-c3cc(CN4CCC(N)CC4)n4ncnc(N)c34)sc12 [Example 26] |  | 0.0826 | 0.13 | no inhib. effect detect.
